# Biological target: T1, Tumour suppressor p53/oncoprotein Mdm2 (Homo sapiens, UniProt Q00987)
# Experiment: Inhibition of N-terminal thioredoxin-His6 tagged HDM2 (17 to 125 residues)/p53 protein-protein interaction (unknown origin) incubated for 2 hrs by TR-FRET assay
# Details: not given
# T1 sequence (P04637 whole entry, the tested form may be a part): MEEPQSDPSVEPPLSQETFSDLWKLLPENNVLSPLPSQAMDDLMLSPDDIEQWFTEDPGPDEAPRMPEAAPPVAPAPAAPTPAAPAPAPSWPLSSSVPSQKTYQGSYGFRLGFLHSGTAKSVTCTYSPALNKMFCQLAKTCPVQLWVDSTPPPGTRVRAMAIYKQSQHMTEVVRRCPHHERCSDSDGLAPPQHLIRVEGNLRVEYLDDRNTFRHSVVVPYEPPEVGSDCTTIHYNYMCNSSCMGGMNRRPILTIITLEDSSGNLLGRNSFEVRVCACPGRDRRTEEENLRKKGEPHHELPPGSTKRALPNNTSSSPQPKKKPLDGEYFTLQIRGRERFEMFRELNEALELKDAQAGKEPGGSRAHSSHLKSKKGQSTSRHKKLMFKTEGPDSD
# T1 sequence (Q00987 whole entry, the tested form may be a part): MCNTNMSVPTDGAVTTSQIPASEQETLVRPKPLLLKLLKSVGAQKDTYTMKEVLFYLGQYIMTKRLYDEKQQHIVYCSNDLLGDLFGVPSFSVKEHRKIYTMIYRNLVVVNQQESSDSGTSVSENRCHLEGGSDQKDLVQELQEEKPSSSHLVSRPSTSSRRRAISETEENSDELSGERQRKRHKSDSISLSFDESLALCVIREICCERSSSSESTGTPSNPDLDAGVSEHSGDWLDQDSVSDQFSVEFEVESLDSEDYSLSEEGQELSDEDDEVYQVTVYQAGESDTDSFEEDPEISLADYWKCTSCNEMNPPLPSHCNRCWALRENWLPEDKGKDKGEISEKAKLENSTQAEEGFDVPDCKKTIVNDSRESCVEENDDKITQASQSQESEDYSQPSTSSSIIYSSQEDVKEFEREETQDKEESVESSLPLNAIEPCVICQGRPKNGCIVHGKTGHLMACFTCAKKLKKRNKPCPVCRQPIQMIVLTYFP
row,SMILES,IC50
1,CC(C)c1ccnc(-c2nc3nc(C(=O)O)nc(N[C@H](C)C4CCC4)c3n2C[C@H]2CC[C@@H](C)CC2)c1,348 nM
2,CC(C)c1ccnc(-c2nc3nc(C(=O)O)nc(N[C@H](C)C4CCC4)c3n2C[C@H]2CC[C@H](C)CC2)c1 (mixture of isomers),2.2 nM
3,Cc1cccc(-c2nc3nc(C(=O)O)nc(NCC4CC4)c3n2CC2CCCCC2)c1,8400 nM
4,C[C@@H](Nc1nc(-c2nnc[nH]2)nc2nc(N3CCOC[C@H]3c3ccccc3)n(C[C@H]3CC[C@H](C)CC3)c12)C1CCC1,11 nM
5,C[C@@H](Nc1nc(-c2n[nH]c(=O)n2C)nc2nc(N3CCOC[C@H]3c3ccccc3)n(C[C@H]3CC[C@H](C)CC3)c12)C1CCC1,15 nM
6,C[C@@H](Nc1nc(-c2nc(=O)n(C)[nH]2)nc2nc(N3CCOC[C@H]3c3ccccc3)n(C[C@H]3CC[C@H](C)CC3)c12)C1CCC1,1.5 nM
7,CC(C)c1ccnc(-c2nc3nc(C(=O)O)nc(N[C@H](C)C4CCC4)c3n2Cc2ccc(OC(F)(F)F)cc2)c1,12 nM
8,C[C@H]1CC[C@H](Cn2c(N3CCOC[C@H]3c3ccccc3)nc3cc(-c4noc(=O)[nH]4)nc(-c4cncc(Cl)c4)c32)CC1,0.61 nM
9,C[C@@H](Nc1nc(C(=O)O)nc2nc(N[C@@H](CO)c3ccccc3)n(Cc3ccc(C(F)(F)F)cc3)c12)C1CCC1,1.5 nM
10,C[C@H]1CC[C@H](Cn2c(N3CCOC[C@H]3c3ccccc3)nc3nc(-c4noc(=O)[nH]4)nc(-c4cccc(Cl)c4)c32)CC1,1.3 nM
11,CC(C)c1ccnc(-c2nc3nc(C(=O)O)nc(N[C@H](C)C4CCC4)c3n2Cc2ccc(C(F)(F)F)cc2)c1,4 nM
12,C[C@@H](Nc1nc(C(=O)O)nc2nc(N3CCOC[C@H]3c3ccccc3)n(Cc3ccc(C(F)(F)F)cc3)c12)C1CCC1,1.8 nM
13,C[C@@H](Nc1nc(-c2n[nH]c(=O)o2)nc2nc(N3CCOC[C@H]3c3ccccc3)n(C[C@H]3CC[C@H](C)CC3)c12)C1CCC1,2 nM
14,CC(C)c1cccc(-c2nc3nc(C(=O)O)nc(N[C@H](C)C4CCC4)c3n2Cc2ccc(C(F)(F)F)cc2)c1,15 nM

# Tested on: not listed separately
# Experiment: Selectivity index, ratio of IC50 for inhibition of HDM2/p53 interaction in human HCT-116 cells expressing p53/Bla to IC50 for inhibition of N-terminal thioredoxin-His6 tagged HDM2 (17 to 125 residues)/p53 protein-protein interaction (unknown origin)
# Type: cell-based
# Details: not given
row,SMILES,Ratio IC50
1,C[C@@H](Nc1nc(-c2nnc[nH]2)nc2nc(N3CCOC[C@H]3c3ccccc3)n(C[C@H]3CC[C@H](C)CC3)c12)C1CCC1,66
2,C[C@@H](Nc1nc(CO)nc2nc(N3CCOC[C@H]3c3ccccc3)n(C[C@H]3CC[C@H](C)CC3)c12)C1CCC1,52
3,C[C@@H](Nc1nc(-c2n[nH]c(=O)n2C)nc2nc(N3CCOC[C@H]3c3ccccc3)n(C[C@H]3CC[C@H](C)CC3)c12)C1CCC1,66
4,C[C@@H](Nc1nc(-c2nc(=O)n(C)[nH]2)nc2nc(N3CCOC[C@H]3c3ccccc3)n(C[C@H]3CC[C@H](C)CC3)c12)C1CCC1,135
5,C[C@@H](Nc1nc(C(=O)O)nc2nc(N3CCOC[C@H]3c3ccccc3)n(C[C@H]3CC[C@H](C)CC3)c12)C1CCC1,5500
6,C[C@@H](Nc1nc(-c2n[nH]c(=O)o2)nc2nc(N3CCOC[C@H]3c3ccccc3)n(C[C@H]3CC[C@H](C)CC3)c12)C1CCC1,70

# Tested on: not listed separately
# Experiment: Mean residence time in dog
# Type: ADME, Canis lupus familiaris
# Details: in vivo
row,SMILES,MRT
1,C[C@H]1CC[C@H](Cn2c(N3CCOC[C@H]3c3ccccc3)nc3cc(-c4noc(=O)[nH]4)nc(-c4cncc(Cl)c4)c32)CC1,1.7 h

# Tested on: not listed separately
# Experiment: Unbound clearance in dog
# Type: ADME, Canis lupus familiaris
# Details: in vivo
row,SMILES,CL free
1,C[C@H]1CC[C@H](Cn2c(N3CCOC[C@H]3c3ccccc3)nc3cc(-c4noc(=O)[nH]4)nc(-c4cncc(Cl)c4)c32)CC1,96.42 L/h/kg

# Tested on: not listed separately
# Experiment: Unbound clearance in rat
# Type: ADME
# Details: in vivo
row,SMILES,CL free
1,C[C@H]1CC[C@H](Cn2c(N3CCOC[C@H]3c3ccccc3)nc3cc(-c4noc(=O)[nH]4)nc(-c4cncc(Cl)c4)c32)CC1,1244.7 L/h/kg

# Tested on: not listed separately
# Experiment: Bioavailability in dog
# Type: ADME, organism-based, Canis lupus familiaris
# Details: in vivo
row,SMILES,bioavailability
1,C[C@H]1CC[C@H](Cn2c(N3CCOC[C@H]3c3ccccc3)nc3cc(-c4noc(=O)[nH]4)nc(-c4cncc(Cl)c4)c32)CC1,39%

# Biological target: T1, Tumour suppressor p53/oncoprotein Mdm2
# Experiment: Inhibition of HDM2/p53 interaction in human HCT-116 cells expressing p53RE/Bla incubated for 16 hrs by beta-lactamase reporter gene assay
# Type: cell-based
# Details: not given
row,SMILES,IC50
1,C[C@@H](Nc1nc(-c2nnc[nH]2)nc2nc(N3CCOC[C@H]3c3ccccc3)n(C[C@H]3CC[C@H](C)CC3)c12)C1CCC1,724 nM
2,C[C@@H](Nc1nc(CO)nc2nc(N3CCOC[C@H]3c3ccccc3)n(C[C@H]3CC[C@H](C)CC3)c12)C1CCC1,4100 nM
3,C[C@@H](Nc1nc(-c2n[nH]c(=O)n2C)nc2nc(N3CCOC[C@H]3c3ccccc3)n(C[C@H]3CC[C@H](C)CC3)c12)C1CCC1,990 nM
4,C[C@@H](Nc1nc(-c2nc(=O)n(C)[nH]2)nc2nc(N3CCOC[C@H]3c3ccccc3)n(C[C@H]3CC[C@H](C)CC3)c12)C1CCC1,203 nM
5,C[C@H]1CC[C@H](Cn2c(N3CCOC[C@H]3c3ccccc3)nc3cc(-c4noc(=O)[nH]4)nc(-c4cncc(Cl)c4)c32)CC1,31 nM
6,C[C@H]1CC[C@H](Cn2c(N3CCOC[C@H]3c3ccccc3)nc3nc(-c4noc(=O)[nH]4)nc(-c4cccc(Cl)c4)c32)CC1,113 nM
7,C[C@@H](Nc1nc(C(=O)O)nc2nc(N3CCOC[C@H]3c3ccccc3)n(C[C@H]3CC[C@H](C)CC3)c12)C1CCC1,1100 nM
8,C[C@@H](Nc1nc(-c2n[nH]c(=O)o2)nc2nc(N3CCOC[C@H]3c3ccccc3)n(C[C@H]3CC[C@H](C)CC3)c12)C1CCC1,140 nM

# Tested on: not listed separately
# Experiment: Bioavailability in rat
# Type: ADME, organism-based
# Details: in vivo
row,SMILES,bioavailability
1,C[C@H]1CC[C@H](Cn2c(N3CCOC[C@H]3c3ccccc3)nc3cc(-c4noc(=O)[nH]4)nc(-c4cncc(Cl)c4)c32)CC1,5%

# Tested on: not listed separately
# Experiment: Lipophilicity, logD of the compound at pH 7 by RP-HPLC analysis
# Type: physicochemical
# Details: buffer
row,SMILES,logD
1,CC(C)c1ccnc(-c2nc3nc(C(=O)O)nc(N[C@H](C)C4CCC4)c3n2C[C@H]2CC[C@@H](C)CC2)c1,2.7
2,CC(C)c1ccnc(-c2nc3nc(C(=O)O)nc(N[C@H](C)C4CCC4)c3n2C[C@H]2CC[C@H](C)CC2)c1 (mixture of isomers),2.94
3,Cc1cccc(-c2nc3nc(C(=O)O)nc(NCC4CC4)c3n2CC2CCCCC2)c1,3.7
4,CC(C)c1ccnc(-c2nc3nc(C(=O)O)nc(N[C@H](C)C4CCC4)c3n2Cc2ccc(OC(F)(F)F)cc2)c1,2.81
5,C[C@H]1CC[C@H](Cn2c(N3CCOC[C@H]3c3ccccc3)nc3cc(-c4noc(=O)[nH]4)nc(-c4cncc(Cl)c4)c32)CC1,2.69
6,C[C@@H](Nc1nc(C(=O)O)nc2nc(N[C@@H](CO)c3ccccc3)n(Cc3ccc(C(F)(F)F)cc3)c12)C1CCC1,1.94
7,C[C@H]1CC[C@H](Cn2c(N3CCOC[C@H]3c3ccccc3)nc3nc(-c4noc(=O)[nH]4)nc(-c4cccc(Cl)c4)c32)CC1,3.15
8,CC(C)c1ccnc(-c2nc3nc(C(=O)O)nc(N[C@H](C)C4CCC4)c3n2Cc2ccc(C(F)(F)F)cc2)c1,2.66
9,C[C@@H](Nc1nc(C(=O)O)nc2nc(N3CCOC[C@H]3c3ccccc3)n(Cc3ccc(C(F)(F)F)cc3)c12)C1CCC1,2.32
10,CC(C)c1cccc(-c2nc3nc(C(=O)O)nc(N[C@H](C)C4CCC4)c3n2Cc2ccc(C(F)(F)F)cc2)c1,2.86

# Tested on: not listed separately
# Experiment: Mean residence time in rat
# Type: ADME
# Details: in vivo
row,SMILES,MRT
1,C[C@H]1CC[C@H](Cn2c(N3CCOC[C@H]3c3ccccc3)nc3cc(-c4noc(=O)[nH]4)nc(-c4cncc(Cl)c4)c32)CC1,0.4 h

# Tested on: HCT-116
# Experiment: cells
# Details: Homo sapiens, HCT-116, 72 h
row,SMILES,IC50
1,C[C@H]1CC[C@H](Cn2c(N3CCOC[C@H]3c3ccccc3)nc3cc(-c4noc(=O)[nH]4)nc(-c4cncc(Cl)c4)c32)CC1,93 nM
2,C[C@H]1CC[C@H](Cn2c(N3CCOC[C@H]3c3ccccc3)nc3nc(-c4noc(=O)[nH]4)nc(-c4cccc(Cl)c4)c32)CC1,723 nM
